In the NIST ThermoML archive (doi:10.1016/j.jct.2015.01.015):
± gives the expanded uncertainty stated by the source.

Key:
[1] = Molar enthalpy of transition or fusion; details: Crystal; DSC
[2] = Crystal; DTA

Molar enthalpy of transition or fusion [1] [kcal/mol] | Normal melting temperature [2] [°C] | Compound
5.4 ± 0.335 | 128.6 ± 1.1 | NC(=O)c1cccnc1 [3-pyridinecarboxamide]
9.06 ± 0.574 | 160.0 ± 1.1 | COc1ccc2c(c1)c(CC(=O)O)c(C)n2C(=O)c1ccc(Cl)cc1
